Measured values from patent US12180192B2, “Modulators of THR-β and methods of use thereof” (ALIGOS THERAPEUTICS, INC., priority 2019, dated 2024).

How the values were obtained:
Assay type in all cases: cell-based
[1] = molecular target: T1, THR alpha (Homo sapiens, UniProt P10827); experiment: HEK293T THR alpha/RXR luciferase reporter assay (Assay 2); conditions: Assay 2; for Emax: HEK-293T, Table 5, THRα, read-out: Activity category Assay 2 THRα (Emax); for EC50: Table 4, THR-alpha, read-out: Activity category Assay 2 (EC50, THR-alpha agonist activity)
T1 construct: expressed in transfected cells; host or cells: HEK293T (ATCC CRL-3216)
T1 sequence (P10827 1-410 isoform P10827-2): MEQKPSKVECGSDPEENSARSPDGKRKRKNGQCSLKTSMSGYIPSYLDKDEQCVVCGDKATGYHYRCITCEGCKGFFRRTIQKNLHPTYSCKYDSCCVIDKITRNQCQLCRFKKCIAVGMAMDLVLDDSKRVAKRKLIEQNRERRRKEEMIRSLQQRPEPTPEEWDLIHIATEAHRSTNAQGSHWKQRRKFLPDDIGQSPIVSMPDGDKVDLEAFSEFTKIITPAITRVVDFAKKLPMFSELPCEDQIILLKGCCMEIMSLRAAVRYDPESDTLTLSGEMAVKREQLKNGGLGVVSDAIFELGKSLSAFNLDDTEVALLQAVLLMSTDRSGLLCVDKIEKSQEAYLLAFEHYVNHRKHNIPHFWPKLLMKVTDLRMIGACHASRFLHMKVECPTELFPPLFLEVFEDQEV
T1 sequence (P19793 1-462 partner): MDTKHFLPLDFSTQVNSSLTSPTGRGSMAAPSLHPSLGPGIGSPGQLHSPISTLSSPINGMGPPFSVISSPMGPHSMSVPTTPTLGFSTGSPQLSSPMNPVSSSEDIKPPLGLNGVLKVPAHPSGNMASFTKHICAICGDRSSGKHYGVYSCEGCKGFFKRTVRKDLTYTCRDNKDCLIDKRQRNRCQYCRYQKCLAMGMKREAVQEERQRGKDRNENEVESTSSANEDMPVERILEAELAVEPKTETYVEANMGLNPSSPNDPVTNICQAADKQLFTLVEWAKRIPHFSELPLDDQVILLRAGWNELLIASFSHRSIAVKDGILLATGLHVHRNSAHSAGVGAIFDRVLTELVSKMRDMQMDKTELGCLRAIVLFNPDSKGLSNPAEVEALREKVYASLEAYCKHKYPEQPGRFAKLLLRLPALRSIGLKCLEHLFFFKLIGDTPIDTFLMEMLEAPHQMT
Outline: (§1)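 HEK293T cells transiently transfected with TRE-luciferase reporter, RXR, and THR alpha or THR beta plasmid; ten five-fold compound dilutions from DMSO added for 18-24 h. One-Glo luminescence read; percent agonism normalized between negative and positive controls.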

[2] = molecular target: T2, THR beta (Homo sapiens, UniProt P10828); experiment: HEK293T THR beta/RXR luciferase reporter assay (Assay 2); conditions: for Emax: HEK-293T, Table 5, Assay 2, THRβ, read-out: Activity category Assay 2 THRβ (Emax); for EC50: THR-beta, HEK293T reporter assay, read-out: Activity category Assay 2 (EC50, THR-beta agonist)
T2 construct: expressed in transfected cells; host or cells: HEK293T (ATCC CRL-3216)
T2 sequence (P10828 1-461): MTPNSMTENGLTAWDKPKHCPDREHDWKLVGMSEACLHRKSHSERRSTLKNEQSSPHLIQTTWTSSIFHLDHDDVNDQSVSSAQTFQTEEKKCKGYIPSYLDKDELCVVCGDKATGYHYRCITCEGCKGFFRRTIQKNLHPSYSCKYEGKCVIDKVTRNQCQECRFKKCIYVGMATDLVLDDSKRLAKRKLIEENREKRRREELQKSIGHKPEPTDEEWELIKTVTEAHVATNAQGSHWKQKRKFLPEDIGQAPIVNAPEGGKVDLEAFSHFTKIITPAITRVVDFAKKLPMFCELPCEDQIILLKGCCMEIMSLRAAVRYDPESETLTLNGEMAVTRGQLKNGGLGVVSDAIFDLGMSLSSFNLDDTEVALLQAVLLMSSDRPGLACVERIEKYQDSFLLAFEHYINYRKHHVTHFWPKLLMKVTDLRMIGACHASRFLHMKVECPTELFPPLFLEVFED
T2 sequence (P19793 1-462 partner): T1 sequence (P19793 1-462 partner)
Outline: as §1

[3] = test system: CPT1A gene expression in Huh-7 cells; experiment: Huh-7 differential gene expression, CPT1A RT-qPCR (Assay 3); conditions: Homo sapiens, Huh-7, 24 h, Table 6, Huh-7 cells, CPT1A, 24 hr treatment; for EC50: read-out: Activity category Assay 3 EC50; for Emax: read-out: Activity category Assay 3 Emax
Procedure: Huh-7 Differential Gene Expression (Assay 3)
Fetal bovine serum (FBS) was incubated with washed resin (50 mg resin/mL FBS; resin weight is dry weight of resin prior to washing) for 5 hr at room temperature on a rotor. The FBS was separated from the resin via centrifugation and incubated with new, washed resin for 18 h at room temperature on a rotor.
Cell Culture and Drug Treatment
Huh-7 cells were cultured in DMEM (10-013-CM, Corning) supplemented with 10% FBS and 1% Pen-Strep at 37° C. under 5% C02. When 70-80% confluence was reached, the cells were removed by trypsinization. The medium was aspirated from the cell culture dish, the cell monolayer was washed with 1×PBS, and 0.05% trypsin, 0.53 mM EDTA (25-052-CV, Corning) solution was added to the dish. After 3 min incubation, the cells were detached completely by repeatedly pipetting solution onto the monolayer. Equal volume of DMEM supplemented with 10% rFBS and 1% Pen-Strep (TH-depleted DMEM) was added to the dish to inactivate the trypsin. The cell suspension was centrifuged at 350×g at room temperature for 3 min. The supernatant was aspirated out and the cell pellet was resuspended in TH-depleted DMEM. […] After 24 hr incubation, the media was replaced with treatment media. All compounds were serially diluted in DMSO and final concentrations were reached by dilution in TH-depleted DMEM (0.1% DMSO). The cells were incubated in treatment media for 24 hr. Treatments were performed in biological duplicates.
After 24 hr in treatment media, the cells were lysed directly on the culture plates and cDNA was produced using the TaqMan™ Fast Advanced Cells-to-CT™ Kit (A35374, Invitrogen) and following the manufacturer's protocol. RT-qPCR for CPT1A (Hs00912671_m1) and two housekeeping genes, ACTB (Hs01060665_g1) and TFG (Hs02832013_g1), was performed using TaqMan™ Fast Advanced Master Mix. RT-qPCR reactions were run on the qTOWER^3 84 G (Analytik Jena) in technical duplicates.
ΔRn values were obtained from the qPCRsoft384 1.0 software and CPT1A gene expression was quantified via the 2-ΔΔCt method. Dose-response curves were generated using GraphPad Prism 8 using four parameter logistic equation without top constraint to derive EC50 and Emax.

Nc1nn(-c2cc(Cl)c(Oc3cc(-c4ccc5c(c4)CCCC5)c(=O)[nH]n3)c(Cl)c2)c(=O)[nH]c1=O [Compound 72, 6-Amino-2-(3,5-dichloro-4-((6-oxo-5-(5,6,7,8-tetrahydro-naphthalen-2-yl)-1,6-dihydro-pyridazin-3-yl)oxy)phenyl)-1,2,4-triazine-3,5(2H,4H)-dione]
Emax [1]: < 50% | EC50 [1]: > 10000 nM | Emax [2]: 50 to 75% | EC50 [2]: 50 to 250 nM | EC50 [3]: 100 to 1000 nM | Emax [3]: > 75%

Cc1cc(-n2nc(C#N)c(=O)[nH]c2=O)cc(C)c1Cc1ccc2[nH]cc(C(C)C)c2n1 [Compound 31, 2-[4-[(3-isopropyl-1H-pyrrolo[3,2-b]pyridin-5-yl)methyl]-3,5-dimethyl-phenyl]-3,5-dioxo-1,2,4-triazine-6-carbonitrile]
Emax [1]: > 75% | EC50 [1]: 1000 to 10000 nM | Emax [2]: > 75% | EC50 [2]: 250 to 1000 nM | EC50 [3]: 100 to 1000 nM | Emax [3]: > 75%

Nc1nn(-c2cc(Cl)c(Oc3n[nH]c(=O)cc3-c3ccc4c(c3)CCCC4)c(Cl)c2)c(=O)[nH]c1=O [Compound 72-A, 6-amino-2-(3,5-dichloro-4-[[6-oxo-4-(5,6,7,8-tetrahydronaphthalen-2-yl)-1H-pyridazin-3-yl]oxy]phenyl)-4H-1,2,4-triazine-3,5-dione]
Emax [1]: < 50% | EC50 [1]: > 10000 nM | Emax [2]: 50 to 75% | EC50 [2]: 50 to 250 nM | EC50 [3]: 100 to 1000 nM | Emax [3]: > 75%

CC(C)c1cc(=O)[nH]c2ccc(Oc3c(Cl)cc(-n4nc(N)c(=O)[nH]c4=O)cc3Cl)cc12 [Compound 146, 6-amino-2-[3,5-dichloro-4-[(4-isopropyl-2-oxo-1H-quinolin-6-yl)oxy]phenyl]-1,2,4-triazine-3,5-dione]
Emax [1]: < 50% | EC50 [1]: 50 to 250 nM | Emax [2]: 50 to 75% | EC50 [2]: < 50 nM | EC50 [3]: 100 to 1000 nM | Emax [3]: > 75%

Cc1cc(-n2nc(N)c(=O)[nH]c2=O)cc(C)c1Cc1ccc2[nH]cc(C(C)C)c2n1 [Compound 55, 6-amino-2-[4-[(3-isopropyl-1H-pyrrolo[3,2-b]pyridin-5-yl)methyl]-3,5-dimethyl-phenyl]-1,2,4-triazine-3,5-dione]
Emax [1]: > 75% | EC50 [1]: 50 to 250 nM | Emax [2]: > 75% | EC50 [2]: < 50 nM | EC50 [3]: < 100 nM | Emax [3]: > 75%

Cc1ccc(-c2cc(Oc3c(Cl)cc(-n4nc(N)c(=O)[nH]c4=O)cc3Cl)n[nH]c2=O)cc1C [Compound 112]
Emax [1]: < 50% | EC50 [1]: 1000 to 10000 nM | Emax [2]: < 50% | EC50 [2]: 50 to 250 nM | EC50 [3]: 100 to 1000 nM | Emax [3]: > 75%
